Results as given in patent US10376486B2, “Compositions and methods for reactivating latent viral infections” (priority 2014, dated 2019).

Tests used:
[1] = test system: J-Lat A1 cells, U1 cells, primary CD4+ T cells; assay: Cell viability by MTT assay; type: cell-based; settings: J-Lat A1 and U1 cell lines, 12 nM PEP005, 24 hours
Experimental: FIG. 7: PEP005 causes minimal cytotoxicity and T cell proliferation. To evaluate the impact of PEP005 on the cell viability, U1 cells (A), J-Lat A1 cells (B) and CD4+ T cells (C) were treated with 12 nM of PEP005 for 24 hours, the cell viability was examined with the MTT assay and the S-phase cell cycle progression was evaluated after BrdU incorporation using BrdU ELISA. 25-50 μM Etoposide or 100-150 μM Doxorubicin (Doxo) served as positive controls for MTT and BrdU assays respectively. Statistical analysis was performed in comparison with controls. **, p<0.01.
Cells were placed in 96-well plates and incubated for 24 or 72 h hrs with compounds. Cell viability was measured using MTT assay (Roche Laboratories), and cell proliferation/S-phase progression was determined by using BrdU ELISA kit (Cell signaling, #1863).

[2] = test system: NF-κB/p65 binding to HIV LTR; assay: ChIP-qPCR of NF-κB/p65 binding to the HIV LTR in J-Lat A1 cells; type: cell-based; settings: 12 nM PEP005
Experimental: FIG. 4: PEP005-induced HIV reactivation is mediated through PKCδ/θ-IκBα/ε-NF-κB signaling. (A) PEP005-induced HIV reactivation is suppressed by inhibition of the PKCδ/θ. J-Lat A1 cells were treated with 6 nM of PEP005 in the presence of 1, 2 or 5 μM of PKC inhibitor (PKCθ/δ inhibitor; Milipore/Calbiochem (539649)) and evaluated for GFP expression by RT-qPCR. (B) NF-κB inhibition partially suppresses PEP005-induced HIV reactivation in J-Lat A1 cells. J-Lat A1 cells were treated with 6 nM of PEP005 in the presence of 2.5 μM Bay 11-7082, an NF-κB inhibitor, and were evaluated for GFP expression by RT-qPCR. (C) J-Lat A1 cells were treated with PEP005 or alternatively with PKC inhibitor alone or in the presence of PEP005 and the relative binding of NF-κB to the HIV LTR was determined using ChIP-qPCR.
Chromatin immunoprecipitation (ChIP): ChIP assay was performed as previously described. Briefly, 1×10^6 J-Lat A1 cells were incubated with PEP005, or PKCδ/θ inhibitor (PKGδi, Millipore/Calbiochem), fixed in 1% formaldehyde then resuspended in lysis buffer containing 1% SDS, 10 mM EDTA, 50 mM Tris-HCl, pH 8.1 (ChIP Assay Kit, Millipore) and protease inhibitor cocktail (Sigma-Aldrich). […] DNA was extracted (Qiagen PCR purification kit) and quantitative real-time PCR was performed using Agilent Brilliant Ultra-Fast SYBR Green QPCR reagent using the 7500 real-time PCR System. […]

Compound: C/C=C(/C)C(=O)O[C@H]1C(C)=C[C@]23C(=O)[C@@H](C=C(CO)[C@@H](O)[C@]12O)[C@H]1[C@@H](C[C@H]3C)C1(C)C [PEP005, (1aR,2S,5R,5aS,6S,8aS,9R,10aR)-5,5a-Dihydroxy-4-(hydroxymethyl)-1,1,7,9-tetramethyl-11-oxo-1a,2,5,5a,6,9,10,10a-octahydro-1H-2,8a-methanocyclopenta[a]cyclpropa[e][10]annulen-6-yl (2Z)-2-methylbut-2-enoate]
- cellular toxicity (MTT) [1]: minimal levels of cellular toxicity
- increase in NF-κB/p65 binding to HIV LTR region [2]: 6 fold
